Consider 25 molecules from patent publication US8735406B2, “8-oxodihydropurine derivative” (Dainippon Sumitomo Pharma Co., Ltd., priority 2009, dated 2014).

The experiment deals with T1, FAAH (Rattus norvegicus, UniProt P97612).
T1 construct: Preparation of Rat Brain Membranes Preparations (FAAH Enzyme Solution); from tissue; host or cells: rat cerebrum (brain membrane preparation)
T1 sequence (P97612 1-579): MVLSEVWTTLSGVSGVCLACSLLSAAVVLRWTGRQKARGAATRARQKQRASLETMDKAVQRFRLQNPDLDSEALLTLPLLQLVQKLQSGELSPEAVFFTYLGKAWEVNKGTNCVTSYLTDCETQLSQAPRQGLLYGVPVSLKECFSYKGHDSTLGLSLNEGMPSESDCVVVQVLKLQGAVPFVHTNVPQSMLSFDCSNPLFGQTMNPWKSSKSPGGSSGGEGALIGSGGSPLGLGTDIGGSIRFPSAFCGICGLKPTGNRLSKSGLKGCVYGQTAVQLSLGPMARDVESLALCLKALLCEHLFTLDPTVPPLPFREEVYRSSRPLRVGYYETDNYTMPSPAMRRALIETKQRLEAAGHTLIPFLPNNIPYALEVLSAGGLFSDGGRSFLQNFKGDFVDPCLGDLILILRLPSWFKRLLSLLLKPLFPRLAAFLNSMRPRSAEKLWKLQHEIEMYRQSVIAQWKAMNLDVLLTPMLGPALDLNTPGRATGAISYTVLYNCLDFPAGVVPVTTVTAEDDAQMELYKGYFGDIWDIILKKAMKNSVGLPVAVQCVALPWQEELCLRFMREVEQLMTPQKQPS
The experiment is described as follows: Determination of FAAH inhibitory activity in rat (rat brain membrane preparations, [3H]-anandamide hydrolysis). To be noted: rat brain membrane preparations; for inhibition at 0.1 µM: 100 nM test substance, read-out: FAAH Inhibition, Inhibition Rate at 100 nM; for IC50: test substance 0.1 nM to 1 μM, read-out: FAAH Inhibition IC50. The experiment is classed as biochemical. The procedure, abridged: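 Rat cerebrum membranes (100 μg/mL protein) preincubated 10 min at 37 °C with compound (1% DMSO) in pH 7.6 Tris buffer with 1.5% BSA. Substrate 2 nM [3H]-anandamide plus 2 μM anandamide added for 10 min at 37 °C. [3H]-ethanolamine in the aqueous phase after chloroform/methanol extraction was scintillation counted; IC50 over 0.1 nM–1 μM.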

Structures are written as SMILES.

By inhibition is commonly meant the drop in the measured response relative to a control, in per cent. By IC50 is commonly meant the concentration at which inhibition is half-maximal. Consider `Cn1c(=O)n(C(=O)N2CCCC2)c2cnc(-c3ccncc3)nc21` [Example 213, 9-Methyl-2-(pyridin-4-yl)-7-(pyrrolidin-1-ylcarbonyl)-7,9-dihydro-8H-purine-8-one], for which the inhibition at 0.1 µM worked out at 100% and the IC50 came out at 5 nM.
On to `Cn1c(=O)n(C(=O)N2CCCC2)c2cnc(-c3ccnc(Cl)c3)nc21` [Example 214, 2-(2-Chloropyridin-4-yl)-9-methyl-7-(pyrrolidin-1-ylcarbonyl)-7,9-dihydro-8H-purine-8-one], for which the inhibition at 0.1 µM came out at 99% and the IC50 was 18 nM.
Taken in the same sequence, the figures for `Cn1c(=O)n(C(=O)N2CCCC2)c2cnc(-c3ccnc(F)c3)nc21` [Example 215, 2-(2-Fluoropyridin-4-yl)-9-methyl-7-(pyrrolidin-1-ylcarbonyl)-7,9-dihydro-8H-purine-8-one] were 98% and 10 nM.
Take `Cn1c(=O)n(C(=O)N2CCCC2)c2cnc(-c3cc4ccccc4o3)nc21` [Example 216]: the inhibition at 0.1 µM was 99% and the IC50 turned out to be 7 nM.
In the case of `C/C=C/c1ncc2c(n1)n(C)c(=O)n2C(=O)N1CCCC1` [Example 217], the inhibition at 0.1 µM worked out at 99% and the IC50 amounted to 27 nM.
`Cn1c(=O)n(C(=O)N2CCCC2)c2cnc(C3=CCCCC3)nc21` [Example 218, 2-(cyclohexen-1-yl)-9-methyl-7-(pyrrolidin-1-ylcarbonyl)-7,9-dihydro-8H-purine-8-one]: the inhibition at 0.1 µM amounted to 95% and the IC50 is 25 nM.
Taken in the same sequence, the figures for `CCN(C)C(=O)n1c(=O)n(C)c2nc(-c3cccnc3)ncc21` [Example 219, N-Ethyl-N,9-dimethyl-8-oxo-2-(pyridin-3-yl)-8,9-dihydro-7H-purine-7-carboxamide] were 96% and 9 nM.
As to `CCN(C)C(=O)n1c(=O)n(C)c2nc(-c3ccncc3)ncc21` [Example 220, N-Ethyl-N,9-dimethyl-8-oxo-2-(pyridin-4-yl)-8,9-dihydro-7H-purine-7-carboxamide], the inhibition at 0.1 µM was 105% and the half-maximal inhibitory concentration (IC50) was determined as 7 nM.
`CCN(C)C(=O)n1c(=O)n(C)c2nc(-c3ccnc(F)c3)ncc21` [Example 221, N-Ethyl-2-(2-fluoropyridin-4-yl)-N,9-dimethyl-8-oxo-8,9-dihydro-7H-purine-7-carboxamide]: the inhibition at 0.1 µM is 100% and the IC50 came to 4 nM.
As for `CN(CCc1ccc(Cl)cc1)C(=O)n1c(=O)n(C)c2nc(-c3ccnc(F)c3)ncc21` [Example 222, N-[2-(4-Chlorophenyl)ethyl]-2-(2-fluoropyridin-4-yl)-N,9-dimethyl-8-oxo-8,9-dihydro-7H-purine-7-carboxamide], the inhibition at 0.1 µM came out at 99% and the IC50 was less than 1 nM.
With `CN(CCC1CCCCC1)C(=O)n1c(=O)n(C)c2nc(-c3ccncc3)ncc21` [Example 223, N-(2-Cyclohexylethyl)-N,9-dimethyl-8-oxo-2-(pyridin-4-yl)-8,9-dihydro-7H-purine-7-carboxamide], the inhibition at 0.1 µM was found to be 105% and the IC50 is less than 1 nM.
Taken in the same sequence, the figures for `Cn1c(=O)n(C(=O)N2CCCC2)c2nc(-c3ccccc3)ncc21` [Example 224, 7-Methyl-2-phenyl-9-(pyrrolidin-1-ylcarbonyl)-7,9-dihydro-8H-purine-8-one] were 91% and 53 nM.
`Cn1c(=O)n(C(=O)N2CCCC2)c2nc(-c3cccc(F)c3)ncc21` [Example 226, 2-(3-Fluorophenyl)-7-methyl-9-(pyrrolidin-1-ylcarbonyl)-7,9-dihydro-8H-purine-8-one]: the inhibition at 0.1 µM amounted to 99% and the IC50 amounted to 27 nM.
For the molecule `Cn1c(=O)n(C(=O)N2CCCC2)c2nc(-c3ccc(F)cc3)ncc21` [Example 227, 2-(4-Fluorophenyl)-7-methyl-9-(pyrrolidin-1-ylcarbonyl)-7,9-dihydro-8H-purine-8-one], the inhibition at 0.1 µM was determined as 97% and the concentration for half-maximal inhibition (IC50) was 34 nM.
`Cc1cccc(-c2ncc3c(n2)n(C(=O)N2CCCC2)c(=O)n3C)c1` [Example 228, 7-Methyl-2-(3-methylphenyl)-9-(pyrrolidin-1-ylcarbonyl)-7,9-dihydro-8H-purine-8-one]: the inhibition at 0.1 µM was determined as 99% and the IC50 amounted to 31 nM.
As for `Cc1ccc(-c2ncc3c(n2)n(C(=O)N2CCCC2)c(=O)n3C)cc1` [Example 229, 7-Methyl-2-(4-methylphenyl)-9-(pyrrolidin-1-ylcarbonyl)-7,9-dihydro-8H-purine-8-one], the inhibition at 0.1 µM is 90% and the half-inhibitory concentration (IC50) worked out at 53 nM.
As for `COc1cccc(-c2ncc3c(n2)n(C(=O)N2CCCC2)c(=O)n3C)c1` [Example 230, 2-(3-Methoxyphenyl)-7-methyl-9-(pyrrolidin-1-ylcarbonyl)-7,9-dihydro-8H-purine-8-one], the inhibition at 0.1 µM came out at 94% and the IC50 was 44 nM.
Regarding `COc1ccc(-c2ncc3c(n2)n(C(=O)N2CCCC2)c(=O)n3C)cc1` [Example 231, 2-(4-Methoxyphenyl)-7-methyl-9-(pyrrolidin-1-ylcarbonyl)-7,9-dihydro-8H-purine-8-one], the inhibition at 0.1 µM is 91% and the 50% inhibitory concentration (IC50) came out at 51 nM.
As for `CCOc1cccc(-c2ncc3c(n2)n(C(=O)N2CCCC2)c(=O)n3C)c1` [Example 232, 2-(3-ethoxyphenyl)-7-methyl-9-(pyrrolidin-1-ylcarbonyl)-7,9-dihydro-8H-purine-8-one], the inhibition at 0.1 µM was determined as 101% and the IC50 turned out to be 20 nM.
Taken in the same sequence, the figures for `CCOc1ccc(-c2ncc3c(n2)n(C(=O)N2CCCC2)c(=O)n3C)cc1` [Example 233, 2-(4-Ethoxyphenyl)-7-methyl-9-(pyrrolidin-1-ylcarbonyl)-7,9-dihydro-8H-purine-8-one] were 97% and 40 nM.
As for `Cn1c(=O)n(C(=O)N2CCCC2)c2nc(-c3cccc(C(F)(F)F)c3)ncc21` [Example 234, 7-Methyl-9-(pyrrolidin-1-ylcarbonyl)-2-[3-(trifluoromethyl)phenyl]-7,9-dihydro-8H-purine-8-one], the inhibition at 0.1 µM amounted to 100% and the IC50 is 9 nM.
Taken in the same sequence, the figures for `Cn1c(=O)n(C(=O)N2CCCC2)c2nc(-c3ccc(C(F)(F)F)cc3)ncc21` [Example 235, 7-Methyl-9-(pyrrolidin-1-ylcarbonyl)-2-[4-(trifluoromethyl)phenyl]-7,9-dihydro-8H-purine-8-one] were 98% and 39 nM.
For the molecule `Cn1c(=O)n(C(=O)N2CCCC2)c2nc(-c3cccc(OC(F)(F)F)c3)ncc21` [Example 236, 7-Methyl-9-(pyrrolidin-1-ylcarbonyl)-2-[3-(trifluoromethoxy)phenyl]-7,9-dihydro-8H-purine-8-one], the inhibition at 0.1 µM came out at 100% and the concentration for half-maximal inhibition (IC50) was 6 nM.
Regarding `Cn1c(=O)n(C(=O)N2CCCC2)c2nc(-c3ccc(OC(F)(F)F)cc3)ncc21` [Example 237, 7-Methyl-9-(pyrrolidin-1-ylcarbonyl)-2-[4-(trifluoromethoxy)phenyl]-7,9-dihydro-8H-purine-8-one], the inhibition at 0.1 µM came to 98% and the IC50 was 32 nM.
Taken in the same sequence, the figures for `CC(=O)c1cccc(-c2ncc3c(n2)n(C(=O)N2CCCC2)c(=O)n3C)c1` [Example 238, 2-(3-Acetylphenyl)-7-methyl-9-(pyrrolidin-1-ylcarbonyl)-7,9-dihydro-8H-purine-8-one] were 84% and 58 nM.
